In patent US7342122B2, “Bisphosphonate complexes” (priority 2003, dated 2008):
“Also recorded” adds a separate entry of the source.

What was measured:
HBC-4 = assay: Cell growth inhibition, breast cancer cell line HBC-4; assay type: cell-based; conditions: HBC-4, breast cancer cell line
Description: (§1) KB cells were purchased from Human Science Research Resource Bank (Osaka, Japan). The cells were cultured in Earle's MEM (GIBCO BRL) containing 10% FBS (Bio Whittaker) at 37° C. under 5% CO2. After 24 hours the test compounds were added to the cells at the indicated concentrations. 72 hours later the cells were stained with tripan blue and counted manually. IC50 is calculated as the concentration (aqueous solution) of complex required to inhibit growth of cells by 50%.
(§2) In a similar fashion a representative number of examples of compounds of the invention were tested for their ability to inhibit the growth/proliferation of cell types representing a number of different cancers. The results are provided in Tables 4-13, below, which provide the Inhibition Constants (IC50, μM) for each compound across various cell lines.

BSY-1 = assay: Cell growth inhibition, breast cancer cell line BSY-1; assay type: cell-based; conditions: BSY-1, breast cancer cell line
Description: as §1, §2

HBC-5 = assay: Cell growth inhibition, breast cancer cell line HBC-5; assay type: cell-based; conditions: HBC-5, breast cancer cell line
Description: as §1, §2

MCF-7 = assay: Cell growth inhibition, breast cancer cell line MCF-7; assay type: cell-based; conditions: MCF-7, breast cancer cell line
Description: as §1, §2

MDA-MB-231 = assay: Cell growth inhibition, breast cancer cell line MDA-MB-231; assay type: cell-based; conditions: MDA-MB-231, breast cancer cell line
Description: as §1, §2

SF-268 = assay: Cell growth inhibition, brain cancer cell line SF-268; assay type: cell-based; conditions: SF-268, brain cancer cell line
Description: as §1, §2

SF-295 = assay: Cell growth inhibition, brain cancer cell line SF-295; assay type: cell-based; conditions: SF-295, brain cancer cell line
Description: as §1, §2

SNB-75 = assay: Cell growth inhibition, brain cancer cell line SNB-75; assay type: cell-based; conditions: SNB-75, brain cancer cell line
Description: as §1, §2

SNB-78 = assay: Cell growth inhibition, brain cancer cell line SNB-78; assay type: cell-based; conditions: SNB-78, brain cancer cell line
Description: as §1, §2

HCT-116 = assay: Cell growth inhibition, colon cancer cell line HCT-116; assay type: cell-based; conditions: HCT-116, colon cancer cell line
Description: as §1, §2

NCI-H23 = assay: Cell growth inhibition, lung cancer cell line NCI-H23; assay type: cell-based
Description: as §1, §2

NCI-H522 = assay: Cell growth inhibition, lung cancer cell line NCI-H522; assay type: cell-based
Description: as §1, §2

NCI-H460 = assay: Cell growth inhibition, lung cancer cell line NCI-H460; assay type: cell-based
Description: as §1, §2

DMS273 = assay: Cell growth inhibition, lung cancer cell line DMS273; assay type: cell-based
Description: as §1, §2

DMS114 = assay: Cell growth inhibition, lung cancer cell line DMS114; assay type: cell-based
Description: as §1, §2

LOX-IMVI = assay: Cell growth inhibition, melanoma cell line LOX-IMVI; assay type: cell-based
Description: as §1, §2

OVCAR-3 = assay: Cell growth inhibition, ovarian cancer cell line OVCAR-3; assay type: cell-based; conditions: OVCAR-3, ovarian cancer cell line
Description: as §1, §2

OVCAR-4 = assay: Cell growth inhibition, ovarian cancer cell line OVCAR-4; assay type: cell-based; conditions: OVCAR-4, ovarian cancer cell line
Description: as §1, §2

SK-OV-3 = assay: Cell growth inhibition, ovarian cancer cell line SK-OV-3; assay type: cell-based; conditions: SK-OV-3, ovarian cancer cell line
Description: as §1, §2

RXF-631L = assay: Cell growth inhibition, renal cancer RXF-631L; assay type: cell-based
Description: as §1, §2

ACHN = assay: Cell growth inhibition, renal cancer ACHN; assay type: cell-based
Description: as §1, §2

MKN1 = assay: Cell growth inhibition, human stomach cancer MKN1; assay type: cell-based
Description: as §1, §2

MKN45 = assay: Cell growth inhibition, human stomach cancer MKN45; assay type: cell-based
Description: as §1, §2

DU-145 = assay: Cell growth inhibition, prostatic cancer DU-145; assay type: cell-based, human; conditions: DU-145, prostatic cancer
Description: as §1, §2

PC-3 = assay: Cell growth inhibition, prostatic cancer PC-3; assay type: cell-based; conditions: PC-3, prostatic cancer
Description: as §1, §2

[1] = system: all cell types (cancer cell lines of Tables 4-12); assay: Cell growth inhibition, mean over all cell types of the panel; assay type: cell-based; conditions: mean over all cell lines of Tables 4-12
Description: as §1, §2

[2] = In vitro assay, adsorption of Pt complexes to hydroxyapatite; assay type: binding; conditions: for adsorption percentage to hydroxyapatite: 100 mg of hydroxyapatite, HEPES buffer pD=7.8, 1.5 h, 37° C.; for adsorption to hydroxyapatite, comparison in words: FIGS. 1 and 2, 31P NMR, 1H NMR, AAS
Description: Each of a 5, 10, 15, 25, 35, and 100 mg sample of hydroxyapatite (Bio-Rad Macro-Prep Ceramic Hydroxyapatite, type I, 40 μm) was added to 2 ml of HEPES buffer at pD=7.8 and the resulting mixture was shaken for about 24 h at 37° C. Then, 100 μl of each complexes dissolved in HEPES buffer at pD=7.8 was added and the mixtures were shaken for 1.5 h at 37° C. All suspensions were filtered, and these solutions were measured by ^31P NMR (Varian VXR-300S) and Atomic Absorption Spectrometry (Hitachi Z-5710 AAS) of platinum or, for carboplatin, by ^1H NMR. Percentage adsorption to hydroxyapatite was calculated as follows. From NMR: Binding percentage/%=[(A−B)/A]×100 From AAS: Binding percentage/%=[(C−D)/C]×100 • A=the integration intensity of Pt(II) complex • B=the integration intensity of Pt(II) complex after reacted with hydroxyapatite • C=the concentration of Pt(II) complex • D=the concentration of Pt(II) complex after reacted with hydroxyapatite

N.N.O.O.O.O.O.O.O.O=P([O-])([O-])OC1C(OP(=O)([O-])[O-])C(OP(=O)([O-])[O-])C(OP(=O)([O-])[O][Pt+])C(OP(=O)([O-])[O-])C1OP(=O)([O-])[O-].[Na+].[Na+].[Na+].[Na+].[Na+].[Na+].[Na+].[Na+].[Na+].[Na+] (stereo not drawn) [Example 9, Pt(NH3)—IP6 Pt(NH3)2.IP6.10Na.7H2O]
log10 IC50 (M) (HBC-4): -4.27
log10 IC50 (M) (BSY-1): -4.71
log10 IC50 (M) (HBC-5): -5.16
log10 IC50 (M) (MCF-7): -4.19
log10 IC50 (M) (MDA-MB-231): -4.06
log10 IC50 (M) (SF-268): -4.26
log10 IC50 (M) (SF-295): -4.46
log10 IC50 (M) (SNB-75): -5.51
log10 IC50 (M) (SNB-78): -4.29
log10 IC50 (M) (HCT-116): -4.41
log10 IC50 (M) (NCI-H23): -4.7
log10 IC50 (M) (NCI-H522): -5.69
log10 IC50 (M) (NCI-H460): -4.46
log10 IC50 (M) (DMS273): -4.29
log10 IC50 (M) (DMS114): -4.72
log10 IC50 (M) (LOX-IMVI): -4.08
log10 IC50 (M) (OVCAR-3): -4.82
log10 IC50 (M) (OVCAR-4): -4.42
log10 IC50 (M) (SK-OV-3): -5.2
log10 IC50 (M) (RXF-631L): -4.37
log10 IC50 (M) (ACHN): -5.37
log10 IC50 (M) (MKN1): -4.42
log10 IC50 (M) (MKN45): -4.14
log10 IC50 (M) (DU-145): -4.66
log10 IC50 (M) (PC-3): -4.04
log10 IC50 (M) [1]: -4.38

[NH2][Pt]1([NH2])[O]P(=O)(O)CP(=O)(O)[O]1 [Example 1, cis-Pt(NH3)2(MDP)]
adsorption percentage to hydroxyapatite [2]: 69.3%
adsorption to hydroxyapatite, comparison in words [2]: adsorbed quite significantly more than carboplatin

O=P1(O)CP(=O)(O)[O][Pt]2([NH][C@@H]3CCCC[C@H]3[NH]2)[O]1 (stereo partly drawn) [Example 2, Pt(dach)(MDP)]
adsorption percentage to hydroxyapatite [2]: 79.6%
adsorption to hydroxyapatite, comparison in words [2]: adsorbed slightly more than cis-Pt(NH3)2(MDP); also recorded: adsorbed quite significantly more than carboplatin
